Test [1] deals with subcutaneous cancer xenografts. The test is described as follows: Mouse xenograft model, oral administration. The class given is in vivo. The conditions noted are these: BZL101 0.5 ml oral gavage every third day; cyclophosphamide 25 mg/Kg/day in drinking water; FIG. 6. The procedure:
As in Example 1, above, 10^5 cells were administered to each animal subcutaneously on Day 0. The animals were divided into four groups. The control group received only normal drinking water. The cyclophosphamide only group received 25 mg/Kg/day of cyclophosphamide in their drinking water.

In the next test the target is T1, aromatase (Homo sapiens, UniProt P11511).
T1 sequence (P11511 1-503): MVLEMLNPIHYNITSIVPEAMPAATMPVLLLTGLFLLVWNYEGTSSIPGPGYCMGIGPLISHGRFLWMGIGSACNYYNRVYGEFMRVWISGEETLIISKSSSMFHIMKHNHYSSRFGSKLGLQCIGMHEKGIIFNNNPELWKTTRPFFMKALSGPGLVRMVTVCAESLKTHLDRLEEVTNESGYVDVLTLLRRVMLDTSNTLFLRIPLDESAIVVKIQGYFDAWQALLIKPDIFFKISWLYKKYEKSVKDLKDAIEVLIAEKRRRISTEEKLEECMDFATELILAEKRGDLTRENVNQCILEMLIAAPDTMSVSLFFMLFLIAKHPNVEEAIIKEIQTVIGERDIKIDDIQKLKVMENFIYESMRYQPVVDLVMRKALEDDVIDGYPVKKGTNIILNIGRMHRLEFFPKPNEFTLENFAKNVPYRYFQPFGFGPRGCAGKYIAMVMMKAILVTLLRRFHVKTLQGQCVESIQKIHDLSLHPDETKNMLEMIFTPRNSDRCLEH
The conditions noted are these: in vivo studies; cited from earlier work.

The target of another test is T2, estrogen receptor (Homo sapiens, UniProt P03372).
T2 sequence (P03372 1-595): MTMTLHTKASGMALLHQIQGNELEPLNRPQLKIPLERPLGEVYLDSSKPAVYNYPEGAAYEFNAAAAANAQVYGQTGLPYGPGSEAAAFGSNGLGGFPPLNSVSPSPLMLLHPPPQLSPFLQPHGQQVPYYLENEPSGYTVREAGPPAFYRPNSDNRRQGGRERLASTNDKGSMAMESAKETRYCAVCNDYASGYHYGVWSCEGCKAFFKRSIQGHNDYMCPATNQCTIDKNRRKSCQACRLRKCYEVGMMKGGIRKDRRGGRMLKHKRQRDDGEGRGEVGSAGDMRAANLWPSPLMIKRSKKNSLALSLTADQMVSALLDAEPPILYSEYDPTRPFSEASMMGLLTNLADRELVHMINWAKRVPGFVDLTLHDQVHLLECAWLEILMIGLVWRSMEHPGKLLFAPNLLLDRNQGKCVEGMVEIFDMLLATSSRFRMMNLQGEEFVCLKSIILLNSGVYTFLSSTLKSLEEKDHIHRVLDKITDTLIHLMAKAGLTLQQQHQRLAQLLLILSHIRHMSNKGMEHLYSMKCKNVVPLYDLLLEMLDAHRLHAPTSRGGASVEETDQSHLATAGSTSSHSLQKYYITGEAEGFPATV
The conditions noted are these: cited from earlier work.

The next test concerns estrogen receptors. Particulars: compared with estrodiol; cited from earlier work.
The test system of another test is human tumor xenographs. The conditions noted are these: doses from 0.75 mg/kg/day to 1.5 mg/kg/day; cited from earlier work.
The target of the next test is T3, GnHR receptor (Homo sapiens, UniProt P30968).
T3 sequence (P30968 1-328): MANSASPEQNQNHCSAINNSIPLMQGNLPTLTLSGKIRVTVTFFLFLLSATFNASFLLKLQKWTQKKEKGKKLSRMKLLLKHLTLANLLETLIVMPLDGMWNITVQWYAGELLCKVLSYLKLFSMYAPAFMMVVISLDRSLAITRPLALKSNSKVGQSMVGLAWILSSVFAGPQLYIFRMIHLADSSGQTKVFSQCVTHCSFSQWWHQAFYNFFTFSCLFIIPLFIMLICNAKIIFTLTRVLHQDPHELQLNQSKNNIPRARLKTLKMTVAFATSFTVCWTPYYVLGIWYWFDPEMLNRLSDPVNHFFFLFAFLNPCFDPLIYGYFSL
The conditions noted are these: in vivo studies; cited from earlier work.

In the next test the target is T4, ETBR (Homo sapiens, UniProt P24530).
T4 sequence (P24530 27-442): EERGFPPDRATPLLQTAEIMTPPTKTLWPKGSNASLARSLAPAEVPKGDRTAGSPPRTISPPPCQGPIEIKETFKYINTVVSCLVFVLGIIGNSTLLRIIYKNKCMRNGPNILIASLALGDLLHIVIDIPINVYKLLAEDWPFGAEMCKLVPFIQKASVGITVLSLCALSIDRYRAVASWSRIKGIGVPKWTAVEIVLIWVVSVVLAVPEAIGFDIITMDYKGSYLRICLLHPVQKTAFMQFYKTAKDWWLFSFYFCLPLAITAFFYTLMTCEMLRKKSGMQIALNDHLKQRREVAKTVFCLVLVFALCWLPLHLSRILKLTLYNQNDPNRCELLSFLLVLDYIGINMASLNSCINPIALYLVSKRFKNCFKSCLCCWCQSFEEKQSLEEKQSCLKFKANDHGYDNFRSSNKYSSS
Particulars: cited from earlier work.

The next test has as its target T5, ETAR (Homo sapiens, UniProt P25101).
T5 sequence (P25101 21-427): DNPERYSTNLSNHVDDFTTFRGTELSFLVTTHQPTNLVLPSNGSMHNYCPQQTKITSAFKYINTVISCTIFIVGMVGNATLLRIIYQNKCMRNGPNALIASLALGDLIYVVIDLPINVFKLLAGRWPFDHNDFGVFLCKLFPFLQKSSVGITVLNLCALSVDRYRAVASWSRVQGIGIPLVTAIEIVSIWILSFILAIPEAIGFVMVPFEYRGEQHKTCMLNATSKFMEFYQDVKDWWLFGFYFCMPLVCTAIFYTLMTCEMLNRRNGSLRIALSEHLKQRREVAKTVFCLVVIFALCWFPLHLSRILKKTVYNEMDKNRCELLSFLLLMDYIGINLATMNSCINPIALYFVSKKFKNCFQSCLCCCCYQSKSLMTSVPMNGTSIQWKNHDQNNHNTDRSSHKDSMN
Particulars: cited from earlier work.

This is an account of results in patent US20090130118A1, “SCUTELLARIA BARBATA EXTRACT AND COMBINATIONS FOR THE TREATMENT OF CANCER” (BIONOVO, INC., priority 2007, published 2009).

On to `O=P1(N(CCCl)CCCl)NCCCO1` (stereo not drawn) [cyclophosphamide], for which, in test [1], the “tumor growth in xenograft” value is recorded as “inhibited tumor growth as compared to the control”.
As to `CC(C)(C#N)c1cc(Cn2cncn2)cc(C(C)(C)C#N)c1` [Anastrozole], the serum estradiol concentrations result on aromatase was “significantly lowers serum estradiol concentrations”.
For the molecule `C[C@]12CC[C@@H]3c4ccc(O)cc4C[C@@H](CCCCCCCCC[S+]([O-])CCCC(F)(F)C(F)(F)F)[C@H]3[C@@H]1CC[C@@H]2O` (stereo partly drawn) [Fulvestrant], at estrogen receptor, the “effect on estrogen receptor level” value is “downregulates and degrades the estrogen receptor”. For the same molecule, the “affinity for estrogen receptors” value in the test with estrogen receptors is “affinity that is similar to that of estrodiol”.
As for `COc1cc2c(Oc3ccc4[nH]c(C)cc4c3F)ncnc2cc1OCCCN1CCCC1` [AZD 2171], the tumor angiogenesis entry in the test with human tumor xenographs is listed as “inhibited tumor angiogenesis”.
`CC(C)C[C@H](NC(=O)[C@@H](COC(C)(C)C)NC(=O)[C@H](Cc1ccc(O)cc1)NC(=O)[C@H](CO)NC(=O)[C@H](Cc1c[nH]c2ccccc12)NC(=O)[C@H](Cc1cnc[nH]1)NC(=O)[C@@H]1CCC(=O)N1)C(=O)N[C@@H](CCCNC(=N)N)C(=O)N1CCC[C@H]1C(=O)NNC(N)=O` [Goserelin]: on GnHR receptor, the “production of FSH and LH and sex hormones, initial effect” value is “initial increase in production of FSH and LH”; the “time after which the receptor is downregulated and LH or FSH levels fall” value is 14 to 21 days.
`COc1nc(C)cnc1NS(=O)(=O)c1cccnc1-c1ccc(-c2nnco2)cc1` [ZD4054]: on ETBR, the “effect on ETBR” value is reported as “no detectable effect on ETBR”. In addition, the “binding to ETAR” value at ETAR is “only binds to ETAR”.
